Source: US6887992B2, “3-cephem derivative crystal” (Otsuka Kagaku Kabushiki Kaisha, priority 1999, dated 2005)

Experiment: Stability Test: storage, factor of decomposition determined by HPLC
Format: physicochemical
Description: Used were 100 g of clathrate crystals comprising 3-formylcephem compound (1) and dimethylformamide prepared in Example 1 and 100 g of 3-formylcephem compound (1) prepared in Reference Example 1 (amorphous product). They were stored in a thermostatic chamber at 20 to 25° C. and in a refrigerator at 3 to 5° C. for a specified time to determine a factor of decomposition by high performance liquid chromatorgraphy (HPLC). It is clear from the table that the cephalosporin crystals of the invention scarcely causes decomposition and are excellent in stability.

[1] = stored in refrigerator at 3 to 5° C. for 48 days
[2] = stored in thermostatic chamber at 20 to 25° C. for 14 days

Row | Compound | Decomposition rate (%) [1] | Decomposition rate (%) [2]
1 | COc1ccc(COC(=O)C2=C(C=O)CSC3C(NC(=O)Cc4ccccc4)C(=O)N23)cc1 (stereo not shown) [crystal, p-methoxybenzyl ester of 7-phenylacetamide-3-formyl-3-cephem-4-carboxylic acid] | 0% | 2%
2 | COc1ccc(COC(=O)C2=C(C=O)CSC3C(NC(=O)Cc4ccccc4)C(=O)N23)cc1 (stereo not shown) [amorphous product, p-methoxybenzyl ester of 7-phenylacetamide-3-formyl-3-cephem-4-carboxylic acid] | 13% | 59%
